Source: patent publication US11098040B2, “Compounds and methods of use” (Ferro Therapeutics, Inc., priority 2018, dated 2021)
pIC50: −log10 of the molar value. Read-outs that look alike come from different tables or passages of the source.

Tests used:
786-O = test: Cell proliferation (Alamar Blue) assay, 786-O renal cell carcinoma, with/without ferrostatin; type: cell-based; conditions: Homo sapiens; for IC50: 786-0, 24 h, Alamar Blue, 24 h; for pIC50: 786-0, Cell Line 786-O, read-out: IC50
Experimental: (§1) Cell viability assay was performed to assess the potency of the compounds in human cancer cell lines 786-O (renal cell carcinoma) and SJSA-1 (osteosarcoma). Additional cell lines, such as those described above in Example 4 as well as various others, e.g., pancreatic cancer cell lines (Panc 02.13, BxPC-3, Panc 12, Panc 02.03, Panc 6.03, PSN-1, HPAC, and Capan-1) and prostate cancer cell lines (PC-3, DU145, 22Rv1, NCI-H660, BPH1, LNCaP, BM-1604, and MDA PCa 2b), were tested for select compounds as shown in Table 25.
(§2) Cells (SJSA-1, 786-O and A431) were seeded (5000 cells/100 μL/well) in 96-well tissue culture plate and incubated at 37° C./5% CO2 for 16-24 hours. The cells were then treated with compounds (25 μL of 5×). The compound concentrations were 10-0.0005 μM prepared in 3-fold serial dilutions with final DMSO concentration of 1%. The plates were then incubated for 24 h at 37° C./5% CO2 in a moist environment. Then Alamar Blue™ reagent (final concentration 1×-12.5 μL) was added to each well and incubated for 1.5 hours at 37° C./5% CO2. The plates were read on fluorescence reader at 540 nm excitation and 590 nm emission wavelengths. The IC50 values were subsequently determined using a sigmoidal dose-response curve (variable slope) in GraphPad Prism® 5 software.
(§3) Studies have shown that lipophilic antioxidants, such as ferrostatin, can rescue cells from GPX4 inhibition-induced ferroptosis. For instance, mesenchymal state GPX4-knockout cells can survive in the presence of ferrostatin, however, when the supply of ferrostatin is terminated, these cells undergo ferroptosis (see, e.g., Viswanathan et al., Nature 547:453-7, 2017). […] Accordingly, the ability of a molecule to induce ferroptotic cancer cell death, and that such ability is admonished by the addition of ferrostatin, is clear indication that the molecule is an GPX4 inhibitor.

SJSA-1 = test: Cell proliferation (Alamar Blue) assay, SJSA-1 osteosarcoma, with/without ferrostatin; type: cell-based, human; conditions: Homo sapiens; for IC50: SJSA-1, 24 h, Alamar Blue, 24 h; for pIC50: read-out: IC50
Experimental: as §1, §2, §3

KP4 = test: Cell viability assay (CellTiter Glo), pancreatic ductal adenocarcinoma KP4; type: cell-based, human; conditions: Homo sapiens, KP-4, 96 h, pancreatic cancer cell line KP4, 96 hours, CellTiter Glo; read-out: IC50 μM KP4
Method in brief: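 KP4 cells seeded at 1,000–10,000 per well, treated 96 h with 9-point 3-fold dilutions from 30 μM top (4.6 nM–30 μM, duplicates; ≤0.25% DMSO). Viability by CellTiter Glo luminescence; % inhibition relative to DMSO-only wells, giving IC50, relative IC50 or % top inhibition.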

[1] = 2 μM ferrostatin, read-out: 786-O (IC50, μM) 2 μM Ferrostatin
[2] = without ferrostatin, read-out: 786-O (IC50, μM) Without Ferrostatin
[3] = 2 μM ferrostatin, read-out: SJSA-1 (IC50, μM) 2 μM Ferrostatin
[4] = without ferrostatin, read-out: SJSA-1 (IC50, μM) Without Ferrostatin

SMILES | pIC50 (786-O) | pIC50 (SJSA-1; SJSA-1, Cell Line SJSA-1) | also measured
C[C@H]1Cc2c([nH]c3ccccc23)C(c2ccc(S(N)(=O)=O)cc2)N1C(=O)CCl (some centres unmarked) [Compound 123] | 5.62 | – | –
CC1CN(c2ccc([C@@H]3c4[nH]c5ccccc5c4C[C@H](C)N3C(=O)CCl)cc2)CCO1 (some centres unmarked) [Compound 127] | < 5.00 | – | –
C[C@H]1Cc2c([nH]c3ccccc23)[C@@H](c2ccc(S(=O)(=O)NC3CCNCC3)cc2)N1C(=O)CCl [Compound 133, 4-((1R,3S)-2-(2-chloroacetyl)-3-methyl-2,3,4,9-tetrahydro-1H-pyrido[3,4-b]indol-1-yl)-N-(piperidin-4-yl)benzenesulfonamide2,2,2-trifluoroacetic acid] | < 5.00 | < 5.00 | –
COC(=O)[C@H]1Cc2c([nH]c3ccccc23)[C@@H](c2ccc(C(=O)NC34CC5CC(CC(C5)C3)C4)cc2)N1C(=O)CCl [Compound 130, Methyl-(1R,3R)-1-(4-(((3S,5S,7S)-adamantan-1-yl)carbamoyl)phenyl)-2-(2-chloroacetyl)-2,3,4,9-tetrahydro-1H-pyrido[3,4-b]indole-3-carboxylate] | 5.74 | 5.57 | –
CC1CN(c2ccc([C@H]3c4[nH]c5ccccc5c4C[C@H](C)N3C(=O)CCl)cc2)CC(C)O1 (some centres unmarked) [Compound 212] | – | 7.96 | IC50 (786-O; [1]): 4.96 µM; IC50 (786-O; [2]): 0.008 µM; IC50 (SJSA-1; [3]): 5.03 µM; IC50 (SJSA-1; [4]): 0.011 µM
C=C(C(=O)N1[C@@H](c2ccc(N3CCOCC3)cc2)c2[nH]c3ccccc3c2C[C@@H]1C)C(F)(F)F [Compound 175] | < 5.00 | < 5.00 | –
C#CC(=O)N1[C@@H](c2ccc(N3CCOCC3)cc2)c2[nH]c3ccccc3c2C[C@@H]1C [Compound 231] | 6.57 | – | –
C#CC(=O)N1[C@@H](c2ccc(F)cc2)c2[nH]c3ccc(OC)cc3c2C[C@@H]1C [Compound 282] | 6.65 | 6.36 | –
C[C@H]1Cc2c([nH]c3ccccc23)[C@H](c2cnn(C3CCOCC3)c2)N1C(=O)CCl [Compound 158] | 6.23 | – | –
Cc1ccc(S(=O)(=O)OCC(=O)N2[C@@H](c3ccc(N4CCOCC4)cc3)c3[nH]c4ccccc4c3C[C@@H]2C)cc1 [Compound 223] | 6.56 | – | –
C[C@H]1Cc2c([nH]c3ccccc23)[C@H](c2ccc(S(=O)(=O)NC3CCNCC3)cc2)N1C(=O)CCl [Compound 218, 4-((1S,3S)-2-(2-chloroacetyl)-3-methyl-2,3,4,9-tetrahydro-1H-pyrido[3,4-b]indol-1-yl)-N-(piperidin-4-yl)benzenesulfonamide] | 5.09 | 5.85 | –
C[C@H]1Cc2c([nH]c3ccccc23)C(c2ccc(N3CCOCC3)nc2)N1C(=O)CCl (some centres unmarked) [Compound 124] | 6.61 | – | –
C[C@H]1Cc2c([nH]c3ccccc23)[C@H](c2ccc(N3CCN(C)CC3)cc2)N1C(=O)CCl [Example 104] | – | 6.83 | –
C[C@H]1Cc2c([nH]c3ccccc23)[C@@H](c2ccc(S(=O)(=O)NC3CC3)cc2F)N1C(=O)CCl (single isomer, unassigned) [Compound 161] | 5.55 | 5.37 | –
CC#CC(=O)N1[C@@H](c2ccc(N3CCOCC3)cc2)c2[nH]c3ccccc3c2C[C@@H]1C [Compound 224] | – | < 5.52 | –
C[C@H]1Cc2c([nH]c3ccccc23)[C@@H](c2ccc(C(=O)Nc3ccccn3)cc2)N1C(=O)CCl (single isomer, unassigned) [Compound 160] | 6.00 | 5.89 | –
C[C@H]1Cc2c([nH]c3ccccc23)[C@@H](c2ccc(N3CCOCC3)cc2)N1C(=O)CCl [Compound 125, 2-chloro-1-((1R,3S)-3-methyl-1-(4-morpholinophenyl)-1,3,4,9-tetrahydro-2H-pyrido[3,4-b]indol-2-yl)ethan-1-one] | 5.70 | 5.40 | –
C[C@H]1Cc2c([nH]c3ccccc23)[C@@H](c2cnn(C3CCOCC3)c2)N1C(=O)CCl [Compound 159] | 5.34 | – | –
C[C@H]1Cc2c([nH]c3ccccc23)[C@H](c2ccc(N3CCOCC3)cc2)N1C(=O)CF [Compound 227] | – | – | pIC50 (SJSA-1; Cell Line SJSA-1): < 5.52
COC(=O)c1ccc([C@H]2c3[nH]c4ccc(OC)cc4c3C[C@H](C)N2C(=O)CCl)cc1 [Compound 278] | 6.66 | 6.85 | –
C#CC(=O)N1[C@@H](c2ccc(C(=O)NC3CC3)cc2)c2ccc(OC)cc2C[C@@H]1C [Compound 279] | 6.24 | 6.00 | –
C[C@H]1Cc2c([nH]c3ccccc23)C(c2ccc(N3CCOCC3)nc2)N1C(=O)CCl (some centres unmarked) [Example 124] | – | 6.70 | –

Now from value to molecule, other results behind:

pIC50 (786-O) | pIC50 (SJSA-1; SJSA-1, Cell Line SJSA-1) | SMILES | also measured
7.80 | – | C#CC(=O)N1[C@@H](c2ccc(S(=O)(=O)NC3CC3)cc2F)c2[nH]c3ccccc3c2C[C@@H]1C [Compound 174] | IC50 (786-O; [1]): 5.09 µM; IC50 (786-O; [2]): 0.016 µM; IC50 (SJSA-1; [3]): 2.32 µM; IC50 (SJSA-1; [4]): 0.091 µM
6.68 | 6.42 | COc1ccc2c(c1)C[C@H](C)N(C(=O)CCl)[C@H]2c1ccc(C(=O)NC2CC2)cc1 [Compound 280] | –
6.69 | 6.58 | COc1ccc2[nH]c3c(c2c1)C[C@H](C)N(C(=O)CCl)[C@H]3c1ccc(F)cc1 [Compound 281] | –
7.17 | – | C[C@H]1Cc2c([nH]c3ccccc23)[C@H](c2ccc(N3CCN(C)CC3)cc2)N1C(=O)OCl [Compound 104] | IC50 (KP4): 0.01 to 0.1 µM
6.79 | – | C[C@H]1Cc2c([nH]c3ccccc23)[C@H](c2ccncc2)N1C(=O)CCl [Compound 171] | IC50 (786-O; [1]): > 10 µM; IC50 (786-O; [2]): 0.162 µM; IC50 (SJSA-1; [3]): > 10 µM; IC50 (SJSA-1; [4]): 0.254 µM
8.05 | – | C#CCOc1ccc2[nH]c3c(c2c1)C[C@H](C(=O)OC)N(C(=O)CCl)[C@H]3c1ccc(C(=O)NC23CC4CC(CC(C4)C2)C3)cc1 [Compound 211] | IC50 (786-O; [1]): 3.94 µM; IC50 (786-O; [2]): 0.009 µM; IC50 (SJSA-1; [3]): 5.92 µM; IC50 (SJSA-1; [4]): 0.011 µM
8.05 | 7.82 | C#CC(=O)N1[C@@H](c2ccc(S(=O)(=O)NC3CC3)cc2F)c2[nH]c3ccc(F)cc3c2C[C@@H]1C [Compound 153, N-cyclopropyl-3-fluoro-4-((1S,3S)-6-fluoro-3-methyl-2-propioloyl-2,3,4,9-tetrahydro-1H-pyrido[3,4-b]indol-1-yl)benzenesulfonamide] | –
7.66 | – | CCS(=O)(=O)N1CCN(c2ccc([C@H]3c4[nH]c5ccccc5c4C[C@H](C)N3C(=O)CCl)cc2)CC1 [Compound 209] | IC50 (786-O; [1]): > 10 µM; IC50 (786-O; [2]): 0.022 µM; IC50 (SJSA-1; [3]): 8.29 µM; IC50 (SJSA-1; [4]): 0.019 µM
7.17 | 7.52 | C[C@H]1Cc2c([nH]c3ccccc23)[C@H](c2ccc(S(=O)(=O)NC3CCN(C(=O)OC(C)(C)C)CC3)cc2)N1C(=O)CCl [Compound 293, tert-butyl-4-((4-((1S,3S)-2-(2-chloroacetyl)-3-methyl-2,3,4,9-tetrahydro-1H-pyrido[3,4-b]indol-1-yl)phenyl)sulfonamido)piperidine-1-carboxylate] | –
7.01 | – | C[C@H]1Cc2c([nH]c3ccccc23)[C@H](c2ccc(N3CCOCC3)nc2)N1C(=O)CCl [Compound 220] | –
7.66 | 7.55 | C[C@H]1Cc2c([nH]c3ccccc23)[C@H](c2ccc(S(=O)(=O)NC3CC3)cc2F)N1C(=O)CCl (single isomer, unassigned) [Compound 217] | –
7.22 | 7.07 | COC[C@H]1Cc2c([nH]c3ccccc23)C(c2ccc(C(=O)NC3CC3)cc2F)N1C(=O)CCl (stereo partly drawn) [Compound 162, 4-((3R)-2-(2-chloroacetyl)-3-(methoxymethyl)-2,3,4,9-tetrahydro-1H-pyrido[3,4-b]indol-1-yl)-N-cyclopropyl-3-fluorobenzamide] | –
